# Results as given in PubChem BioAssay (NCI).
#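 Method: 48-hour compound exposure of cells in 96-well plates, five concentrations, linear interpolation of endpoints. The concentration for 50% growth inhibition is given as GI50. The concentration for full growth arrest is given as TGI.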
# Experiments:
# Experiment in all cases: inhibition of tumour cell growth, NCI panel, 48 h
# [1] = system: SNB-19 CNS
# [2] = system: OVCAR-8 ovarian
# [3] = system: OVCAR-5 ovarian
# [4] = system: RXF 393 renal
# [5] = system: T-47D breast
# [6] = system: K-562 leukemia
# [7] = system: MALME-3M melanoma
# [8] = system: UACC-62 melanoma
# [9] = system: UACC-257 melanoma
# [10] = system: OVCAR-3 ovarian
# [11] = system: HOP-92 NSCLC
# [12] = system: HT29 colon
# [13] = system: ACHN renal
# [14] = system: NCI-H522 lung
# [15] = system: SW-620 colon
# [16] = system: NCI-H460 lung
# [17] = system: IGROV1 ovarian
# [18] = system: HCT-116 colon
# [19] = system: SNB-75 CNS
# [20] = system: SF-539 CNS
# [21] = system: RPMI-8226 leukemia
# [22] = system: HOP-62 NSCLC
# [23] = system: SK-MEL-5 melanoma
# [24] = system: PC-3 prostate
# [25] = system: SK-MEL-28 melanoma
# [26] = system: A549 NSCLC
# [27] = system: HS 578T breast
# [28] = system: M14 melanoma
# [29] = system: MOLT-4 leukemia
# [30] = system: MDA-MB-435
smiles,measurement,setting,value
S=C(Nc1ccc(OCc2nc3ccc(Cl)cc3[nH]2)cc1)NC1CCCCC1,GI50,[1],10.7 µM
same,TGI,[1],22.6 µM
same,GI50,[2],13.1 µM
same,TGI,[2],28.5 µM
same,GI50,[3],10.8 µM
same,TGI,[3],22.6 µM
same,GI50,[4],6.21 µM
same,TGI,[4],20.5 µM
same,GI50,[5],7.75 µM
same,TGI,[5],26.2 µM
same,GI50,[6],3.57 µM
same,TGI,[6],15.1 µM
same,GI50,[7],11.6 µM
same,TGI,[7],23.8 µM
same,GI50,[8],6.68 µM
same,TGI,[8],20.4 µM
same,GI50,[9],7.53 µM
same,TGI,[9],21.6 µM
same,GI50,[10],4.44 µM
same,TGI,[10],18.8 µM
same,GI50,[11],3.27 µM
same,TGI,[11],14.7 µM
same,GI50,[12],4.44 µM
same,TGI,[12],16 µM
same,GI50,[13],4.99 µM
same,TGI,[13],17.4 µM
same,GI50,[14],2.9 µM
same,TGI,[14],12.6 µM
same,GI50,[15],9.55 µM
same,TGI,[15],24.2 µM
same,GI50,[16],3.96 µM
same,TGI,[16],14.2 µM
same,GI50,[17],6.95 µM
same,TGI,[17],20.2 µM
same,GI50,[18],5.99 µM
same,TGI,[18],21.5 µM
same,GI50,[19],1.79 µM
same,TGI,[19],15.2 µM
same,GI50,[20],12.1 µM
same,TGI,[20],24.5 µM
same,GI50,[21],7.09 µM
same,TGI,[21],41.8 µM
same,GI50,[22],12.3 µM
same,TGI,[22],26.4 µM
same,GI50,[23],5.79 µM
same,TGI,[23],19.5 µM
same,GI50,[24],4.29 µM
same,TGI,[24],18.7 µM
same,GI50,[25],12.1 µM
same,TGI,[25],24.5 µM
same,GI50,[26],6.51 µM
same,TGI,[26],21.6 µM
same,GI50,[27],7.33 µM
same,TGI,[27],28.7 µM
same,GI50,[28],6.73 µM
same,TGI,[28],22.5 µM
same,GI50,[29],4.01 µM
same,TGI,[29],13.9 µM
same,GI50,[30],6.97 µM
